# What was measured:
# Conditions in all cases: 48 h
# [1] = test system: P12-Ichikawa; assay: AUC of viability dose-response curve (% viability x log10 dose units); higher = less sensitive
# How it was run: (§1)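 Leukemia cells adapted to each medium (500 or 1000 cells/well, 1536-well plates) were exposed to library compounds in DMSO for 48 h at 37°C at 11 threefold doses, 47 μM to 0.79 nM. Luminescence by CellTiter-Glo One was normalised per plate to DMSO and cell-free wells, then fitted with a four-parameter log-logistic curve on log10 dose. Curves above full viability were scaled and quality-control failures removed before area under the curve was integrated by trapezoidal rule.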
# [2] = test system: SEM cells; assay: as above
# How it was run: as §1
# [3] = test system: NOMO1; assay: as above
# How it was run: as §1
# [4] = test system: P12-Ichikawa; assay: cell viability relative to DMSO control; higher = less cytotoxic
# How it was run: (§2)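 Viability is a per-plate percentage relative to DMSO wells, with cell-free wells as background. CellTiter-Glo One luminescence was read after 48 h at 37°C on 1536-well plates (5 μl) of NOMO1 or SEM (500 cells/well) or P12-Ichikawa (1000 cells/well) leukemia cells. The cells had been adapted for at least four passages in each medium and pin-dosed with library compounds in DMSO from 47 μM to 0.79 nM in 11 threefold steps.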
# [5] = test system: SEM cells; assay: as above
# How it was run: as §2
# [6] = test system: NOMO1; assay: as above
# How it was run: as §2
# [7] = RPMI 5 mM glucose + 10% dialyzed FBS
# [8] = HPLM + 10% dialyzed FBS, 0.000781 µM
# [9] = HPLM + 10% dialyzed FBS, 0.00234 µM
# [10] = HPLM + 10% dialyzed FBS, 0.00702 µM
# [11] = HPLM + 10% dialyzed FBS, 0.0211 µM
# [12] = HPLM + 10% dialyzed FBS, 0.0632 µM
# [13] = HPLM + 10% dialyzed FBS, 0.19 µM
# [14] = HPLM + 10% dialyzed FBS, 0.569 µM
# [15] = HPLM + 10% dialyzed FBS, 1.71 µM
# [16] = HPLM + 10% dialyzed FBS, 5.12 µM
# [17] = HPLM + 10% dialyzed FBS, 15.4 µM
# [18] = HPLM + 10% dialyzed FBS, 46.1 µM
# [19] = RPMI 5 mM glucose + 10% FBS, 0.000781 µM
# [20] = RPMI 5 mM glucose + 10% FBS, 0.00234 µM
# [21] = RPMI 5 mM glucose + 10% FBS, 0.00702 µM
# [22] = RPMI 5 mM glucose + 10% FBS, 0.0211 µM
# [23] = RPMI 5 mM glucose + 10% FBS, 0.0632 µM
# [24] = RPMI 5 mM glucose + 10% FBS, 0.19 µM
# [25] = RPMI 5 mM glucose + 10% FBS, 0.569 µM
# [26] = RPMI 5 mM glucose + 10% FBS, 1.71 µM
# [27] = RPMI 5 mM glucose + 10% FBS, 5.12 µM
# [28] = RPMI 5 mM glucose + 10% FBS, 15.4 µM
# [29] = RPMI 5 mM glucose + 10% FBS, 46.1 µM
# [30] = RPMI 5 mM glucose + 10% dialyzed FBS, 0.000781 µM
# [31] = RPMI 5 mM glucose + 10% dialyzed FBS, 0.00234 µM
# [32] = RPMI 5 mM glucose + 10% dialyzed FBS, 0.00702 µM
# [33] = RPMI 5 mM glucose + 10% dialyzed FBS, 0.0211 µM
# [34] = RPMI 5 mM glucose + 10% dialyzed FBS, 0.0632 µM
# [35] = RPMI 5 mM glucose + 10% dialyzed FBS, 0.19 µM
# [36] = RPMI 5 mM glucose + 10% dialyzed FBS, 0.569 µM
# [37] = RPMI 5 mM glucose + 10% dialyzed FBS, 1.71 µM
# [38] = RPMI 5 mM glucose + 10% dialyzed FBS, 5.12 µM
# [39] = RPMI 5 mM glucose + 10% dialyzed FBS, 15.4 µM
# [40] = RPMI 5 mM glucose + 10% dialyzed FBS, 46.1 µM
smiles,measurement,setting,value
CCCN[C@H]1CCc2nc(N)sc2C1,AUC of viability dose-response curve,[1]; HPLM + 10% dialyzed FBS,462
same,AUC of viability dose-response curve,[1]; RPMI 5 mM glucose + 10% FBS,430
same,AUC of viability dose-response curve,[1]; [7],450
same,AUC of viability dose-response curve,[2]; HPLM + 10% dialyzed FBS,453
same,AUC of viability dose-response curve,[2]; RPMI 5 mM glucose + 10% FBS,442
same,AUC of viability dose-response curve,[2]; [7],442
same,AUC of viability dose-response curve,[3]; HPLM + 10% dialyzed FBS,447
same,AUC of viability dose-response curve,[3]; RPMI 5 mM glucose + 10% FBS,434
same,AUC of viability dose-response curve,[3]; [7],466
same,cell viability,[4]; [8],92.8%
same,cell viability,[4]; [9],104%
same,cell viability,[4]; [10],98%
same,cell viability,[4]; [11],98.4%
same,cell viability,[4]; [12],101%
same,cell viability,[4]; [13],107%
same,cell viability,[4]; [14],101%
same,cell viability,[4]; [15],110%
same,cell viability,[4]; [16],103%
same,cell viability,[4]; [17],104%
same,cell viability,[4]; [18],107%
same,cell viability,[4]; [19],94.3%
same,cell viability,[4]; [20],90.5%
same,cell viability,[4]; [21],107%
same,cell viability,[4]; [22],104%
same,cell viability,[4]; [23],107%
same,cell viability,[4]; [24],110%
same,cell viability,[4]; [25],107%
same,cell viability,[4]; [26],111%
same,cell viability,[4]; [27],114%
same,cell viability,[4]; [28],114%
same,cell viability,[4]; [29],120%
same,cell viability,[4]; [30],85.6%
same,cell viability,[4]; [31],95.1%
same,cell viability,[4]; [32],90.4%
same,cell viability,[4]; [33],93.6%
same,cell viability,[4]; [34],96%
same,cell viability,[4]; [35],101%
same,cell viability,[4]; [36],96.1%
same,cell viability,[4]; [37],93.6%
same,cell viability,[4]; [38],94.9%
same,cell viability,[4]; [39],96.9%
same,cell viability,[4]; [40],106%
same,cell viability,[5]; [8],93.2%
same,cell viability,[5]; [9],42%
same,cell viability,[5]; [10],98.4%
same,cell viability,[5]; [11],98.8%
same,cell viability,[5]; [12],104%
same,cell viability,[5]; [13],96.4%
same,cell viability,[5]; [14],95.4%
same,cell viability,[5]; [15],99.2%
same,cell viability,[5]; [16],104%
same,cell viability,[5]; [17],99.8%
same,cell viability,[5]; [18],105%
same,cell viability,[5]; [19],91.7%
same,cell viability,[5]; [20],39.1%
same,cell viability,[5]; [21],99.4%
same,cell viability,[5]; [22],87.3%
same,cell viability,[5]; [23],96.2%
same,cell viability,[5]; [24],98.9%
same,cell viability,[5]; [25],103%
same,cell viability,[5]; [26],97.6%
same,cell viability,[5]; [27],85.6%
same,cell viability,[5]; [28],105%
same,cell viability,[5]; [29],104%
same,cell viability,[5]; [30],89.2%
same,cell viability,[5]; [31],37.6%
same,cell viability,[5]; [32],98.3%
same,cell viability,[5]; [33],101%
same,cell viability,[5]; [34],119%
same,cell viability,[5]; [35],125%
same,cell viability,[5]; [36],106%
same,cell viability,[5]; [37],105%
same,cell viability,[5]; [38],112%
same,cell viability,[5]; [39],111%
same,cell viability,[5]; [40],91.4%
same,cell viability,[6]; [8],105%
same,cell viability,[6]; [9],102%
same,cell viability,[6]; [10],104%
same,cell viability,[6]; [11],116%
same,cell viability,[6]; [12],95.4%
same,cell viability,[6]; [13],102%
same,cell viability,[6]; [14],119%
same,cell viability,[6]; [15],112%
same,cell viability,[6]; [16],123%
same,cell viability,[6]; [17],118%
same,cell viability,[6]; [18],114%
same,cell viability,[6]; [19],86.8%
same,cell viability,[6]; [20],84.8%
same,cell viability,[6]; [21],96.6%
same,cell viability,[6]; [22],89.3%
same,cell viability,[6]; [23],92.6%
same,cell viability,[6]; [24],90.6%
same,cell viability,[6]; [25],85.3%
same,cell viability,[6]; [26],96.2%
same,cell viability,[6]; [27],96.7%
same,cell viability,[6]; [28],90.5%
same,cell viability,[6]; [29],89.3%
same,cell viability,[6]; [30],83.9%
same,cell viability,[6]; [31],93.1%
same,cell viability,[6]; [32],104%
same,cell viability,[6]; [33],98.8%
same,cell viability,[6]; [34],106%
same,cell viability,[6]; [35],102%
same,cell viability,[6]; [36],101%
same,cell viability,[6]; [37],107%
same,cell viability,[6]; [38],87.1%
same,cell viability,[6]; [39],109%
same,cell viability,[6]; [40],82.4%

# From the supplement of paper PMC11451515
